Laboratory results from patent US4968691A (priority 1986, dated 1990).
Like-named read-outs stand apart in the source and are kept apart here.

What was measured:
muscarinic receptors [1] = assay type: binding, Hooded Lister rats; conditions: displacement of 0.27 nM 3H-QNB; rat cerebral cortex; 37° C., 30 min; tested as oxalate salts
muscarinic receptors [2] = experiment: Radio ligand binding: displacement of 3H-Oxotremorine-M (muscarinic agonist) from rat cerebral cortex membranes; parameters: species or system Hooded Lister rats; conditions: displacement of 2 nM 3H-OXO-M, 2 mM magnesium chloride, 37° C., 30 min, tested as oxalate salts
[3] = Lambrecht and Mutschler, Arzneim. forsh. 24 (11) 1725, 1974; cited from earlier work

Row | Compound | IC50 (muscarinic receptors [1]) [nM] | IC50 (muscarinic receptors [2]) [nM] | cholinergic activity [3]
1 | Cc1noc(C2CN3CCC2CC3)n1 (racemic) [E1, (±) 3-(3-Methyl-1,2,4-oxadiazol-5-yl)-1-azabicyclo [2.2.2]octane] | 1840 | 15 | –
2 | Cc1nc(C2CN3CCC2CC3)no1 (racemic) [E2, (±) 3-(5-Methyl-1,2,4-oxadiazol-3-yl)-1-azabicyclo [2.2.2]octane] | 17000 | 1100 | –
3 | Cc1nnc(C2CN3CCC2CC3)o1 (racemic) [E4, (±) 3-(5-Methyl-1,3,4-oxadiazol-2-yl)-1-azabicyclo [2.2.2]octane] | 15000 | 1000 | –
4 | c1coc(C2CN3CCC2CC3)n1 (racemic) [E5, (±) 3-(1,3-Oxazol-2-yl)-1-azabicyclo[2.2.2]octane] | 27000 | 630 | –
5 | c1nnc(C2CN3CCC2CC3)o1 (racemic) [E8, (±) 3-(1,3,4-Oxadiazol-2-y.)-1-azabicyclo[2.2.2]octane] | 63000 | 2800 | –
6 | Cc1noc([C@H]2C[C@@H]3CCN(C3)C2)n1 (relative stereo) [E3, (±) exo-3-(3-Methyl-1,2,4-oxadiazol-5-yl)-1-azabicyclo [3.2.1]octane] | 1840 | 25 | –
7 | Cc1noc([C@@H]2CN3CCC[C@@H]2C3)n1 (relative stereo) [E6, (±) exo-6-(3-Methyl-1,2,4-oxadiazol-5-yl)-1-azabicyclo [3.2.1]octane] | 2300 | 41 | –
8 | c1coc([C@H]2C[C@@H]3CCCN(C3)C2)n1 (relative stereo) [E9, (±) exo-3-(1,3-Oxazol-2-yl 1-azabicyclo[3.3.1]nonane] | 3100 | 160 | –
9 | Cc1noc([C@@H]2CN3CC[C@@H]2C3)n1 (relative stereo) [E10, (±) exo-3-(3-Methyl-1,2,4-oxadiazol-5-yl)-1-azabicyclo [2.2.1]heptane] | 1100 | 3.5 | –
10 | COC(=O)C1CN2CCC1CC2 (stereo not shown) [3-Methoxycarbonylquinuclidine] | – | – | possess cholinergic activity
